For this assay, the target named is F508delCFTR (Homo sapiens, UniProt P13569, DEL508-508). As to the kind of experiment: Cell Surface Expression-Horse Radish Peroxidase (CSE-HRP) assay. The settings on record: CFBE4lo-F508delCFTR-HRP cells; for pEC50: 18-24 hours at 33° C., 8-point curve, highest concentration 20 μM, luminescence readout; for Emax: maximum % activity at any tested concentration, normalized to on-plate positive control (3 μM Example 1). Set-up: expressed in transfected cells; host or cells: CFBE41o- human lung derived epithelial cell line, doxycycline-inducible. Format: cell-based. The method in brief: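 Following 18-24 h compound exposure at 33° C. Expression was doxycycline-induced beforehand. % activity versus DMSO and a 3 μM corrector control gave maximum activity and EC50 from a variable-Hill sigmoidal fit.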
Chain of F508delCFTR (P13569 with tags, fused parts or gaps DEL508-508): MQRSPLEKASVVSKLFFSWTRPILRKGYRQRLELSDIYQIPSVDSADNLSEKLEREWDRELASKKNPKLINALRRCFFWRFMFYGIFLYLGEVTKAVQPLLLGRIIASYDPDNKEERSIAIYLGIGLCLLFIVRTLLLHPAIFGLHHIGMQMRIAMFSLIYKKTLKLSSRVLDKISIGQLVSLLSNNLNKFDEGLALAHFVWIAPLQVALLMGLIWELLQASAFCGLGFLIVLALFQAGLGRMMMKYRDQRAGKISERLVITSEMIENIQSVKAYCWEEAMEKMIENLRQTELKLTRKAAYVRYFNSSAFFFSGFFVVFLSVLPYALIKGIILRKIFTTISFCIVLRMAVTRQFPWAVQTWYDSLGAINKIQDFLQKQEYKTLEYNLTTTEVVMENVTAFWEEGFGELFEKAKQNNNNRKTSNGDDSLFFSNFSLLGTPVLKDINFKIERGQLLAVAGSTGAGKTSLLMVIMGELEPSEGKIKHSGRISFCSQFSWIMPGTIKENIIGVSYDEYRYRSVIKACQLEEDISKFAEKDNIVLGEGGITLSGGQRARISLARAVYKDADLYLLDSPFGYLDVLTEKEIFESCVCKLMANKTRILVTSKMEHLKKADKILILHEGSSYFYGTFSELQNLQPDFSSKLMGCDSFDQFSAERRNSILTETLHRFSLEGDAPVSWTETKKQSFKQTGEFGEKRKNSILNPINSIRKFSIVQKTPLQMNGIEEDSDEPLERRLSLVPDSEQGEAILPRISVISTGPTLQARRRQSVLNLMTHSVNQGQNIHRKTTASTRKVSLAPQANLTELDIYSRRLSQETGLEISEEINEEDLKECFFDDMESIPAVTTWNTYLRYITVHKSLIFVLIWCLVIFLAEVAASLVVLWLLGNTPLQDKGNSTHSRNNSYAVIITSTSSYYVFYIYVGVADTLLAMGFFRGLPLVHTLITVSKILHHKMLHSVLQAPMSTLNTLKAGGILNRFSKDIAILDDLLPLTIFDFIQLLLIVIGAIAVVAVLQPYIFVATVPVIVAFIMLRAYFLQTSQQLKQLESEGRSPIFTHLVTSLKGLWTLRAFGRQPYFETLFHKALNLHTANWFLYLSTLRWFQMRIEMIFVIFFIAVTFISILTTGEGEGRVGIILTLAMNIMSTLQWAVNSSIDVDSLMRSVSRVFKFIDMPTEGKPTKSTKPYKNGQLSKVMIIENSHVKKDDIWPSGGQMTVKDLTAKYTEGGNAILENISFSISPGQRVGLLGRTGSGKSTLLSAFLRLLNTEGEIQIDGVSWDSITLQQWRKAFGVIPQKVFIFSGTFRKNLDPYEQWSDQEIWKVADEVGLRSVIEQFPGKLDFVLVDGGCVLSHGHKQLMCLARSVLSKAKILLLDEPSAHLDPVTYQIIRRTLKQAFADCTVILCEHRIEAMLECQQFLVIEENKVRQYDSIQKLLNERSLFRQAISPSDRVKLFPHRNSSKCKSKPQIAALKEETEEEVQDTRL

Molecules are shown by their SMILES. pEC50: −log10 of the molar value. Some results are limits rather than exact numbers.

In general, pEC50 refers to the EC50 on a negative log10 scale, so that one unit is a factor of ten. The Emax is the size of the effect at its maximum, as opposed to the concentration needed. For `COC(=O)c1ccc([C@@H]2C[C@@H](NC(=O)C3(c4ccc5c(c4)OC(F)(F)O5)CC3)c3ccc(OC)cc3O2)nc1` (stereo in doubt) [Example 160, methyl rel-6-[(2S,4R)-4-({[1-(2,2-difluoro-1,3-benzodioxol-5-yl)cyclopropyl]carbonyl}amino)-7-methoxy-3,4-dihydro-2H-chromen-2-yl]pyridine-3-carboxylate], the pEC50 is 6.22 and the Emax was found to be 104%.

The compound `COC(=O)c1ccc([C@@H]2C[C@H](NC(=O)C3(c4ccc5c(c4)OC(F)(F)O5)CC3)c3ccc(OC)cc3O2)nc1` (stereo in doubt) [Example 161, methyl rel-6-[(2S,4S)-4-({[1-(2,2-difluoro-1,3-benzodioxol-5-yl)cyclopropyl]carbonyl}amino)-7-methoxy-3,4-dihydro-2H-chromen-2-yl]pyridine-3-carboxylate] had a pEC50 of 5.65 and an Emax of 82%.

The compound `COC(=O)c1ccc([C@H]2C[C@@H](NC(=O)C3(c4ccc5c(c4)OC(F)(F)O5)CC3)c3ccc(OC)cc3O2)nc1` (stereo in doubt) [Example 162, methyl rel-6-[(2R,4R)-4-({[1-(2,2-difluoro-1,3-benzodioxol-5-yl)cyclopropyl]carbonyl}amino)-7-methoxy-3,4-dihydro-2H-chromen-2-yl]pyridine-3-carboxylate] had a pEC50 of 6.77 and an Emax of 105%.

As to `COc1ccc2c(c1)O[C@@H](c1cccc(C(=O)O)c1)C[C@@H]2NC(=O)C1(c2ccc3c(c2)OC(F)(F)O3)CC1` [Example 2, 3-[(2R,4S)-4-({[1-(2,2-difluoro-1,3-benzodioxol-5-yl)cyclopropyl]carbonyl}amino)-7-methoxy-3,4-dihydro-2H-chromen-2-yl]benzoic acid], the pEC50 is 5.57 and the Emax came to 122%.

In turn, `COc1ccc2c(c1)O[C@H](c1ccc(OC)c(OC)c1)C[C@@H]2NC(=O)C1(c2ccc3c(c2)OC(F)(F)O3)CC1` [Example 4, 1-(2,2-difluoro-1,3-benzodioxol-5-yl)-N-[(2S,4S)-2-(3,4-dimethoxyphenyl)-7-methoxy-3,4-dihydro-2H-chromen-4-yl]cyclopropanecarboxamide] had a pEC50 of 5.92 and an Emax of 73%.

For the compound `COC(=O)c1cccc([C@H]2C[C@H](NC(=O)C3(c4ccc5c(c4)OC(F)(F)O5)CC3)c3ccc(OC)cc3O2)c1` [Example 5, methyl 3-[(2R,4S)-4-({[1-(2,2-difluoro-1,3-benzodioxol-5-yl)cyclopropyl]carbonyl}amino)-7-methoxy-3,4-dihydro-2H-chromen-2-yl]benzoate], the pEC50 is 5.61 and the maximum response (Emax) was 92%.

In turn, `COC(=O)c1cccc([C@H]2C[C@@H](NC(=O)C3(c4ccc5c(c4)OC(F)(F)O5)CC3)c3ccc(OC)cc3O2)c1` [Example 6, methyl 3-[(2R,4R)-4-({[1-(2,2-difluoro-1,3-benzodioxol-5-yl)cyclopropyl]carbonyl}amino)-7-methoxy-3,4-dihydro-2H-chromen-2-yl]benzoate] had a negative-log EC50 (pEC50) of 6.42 and an Emax of 120%.

As for `COC(=O)c1cccc([C@H]2C[C@H](NC(=O)C3(c4ccc5c(c4)OC(F)(F)O5)CC3)c3ccccc3O2)c1` [Example 7, methyl 3-[(2R,4S)-4-({[1-(2,2-difluoro-1,3-benzodioxol-5-yl)cyclopropyl]carbonyl}amino)-3,4-dihydro-2H-chromen-2-yl]benzoate], the negative logarithm of the EC50 (pEC50) is 5.23 and the Emax is 58%.

Turning to `COC(=O)c1cccc([C@H]2C[C@@H](NC(=O)C3(c4ccc5c(c4)OC(F)(F)O5)CC3)c3ccccc3O2)c1` [Example 8, methyl 3-[(2R,4R)-4-({[1-(2,2-difluoro-1,3-benzodioxol-5-yl)cyclopropyl]carbonyl}amino)-3,4-dihydro-2H-chromen-2-yl]benzoate], the pEC50 is 5.76 and the Emax turned out to be 98%.

Consider `O=C(O)c1cccc([C@H]2C[C@H](NC(=O)C3(c4ccc5c(c4)OC(F)(F)O5)CC3)c3ccccc3O2)c1` [Example 10, 3-[(2R,4S)-4-({[1-(2,2-difluoro-1,3-benzodioxol-5-yl)cyclopropyl]carbonyl}amino)-3,4-dihydro-2H-chromen-2-yl]benzoic acid], for which the pEC50 is 5.39 and the Emax was found to be 112%.

As to `COC(=O)c1cccc([C@H]2C[C@@H](NC(=O)C3(c4ccc5c(c4)OC(F)(F)O5)CC3)c3cc(C)ccc3O2)c1` [Example 11, methyl 3-[(2R,4R)-4-({[1-(2,2-difluoro-1,3-benzodioxol-5-yl)cyclopropyl]carbonyl}amino)-6-methyl-3,4-dihydro-2H-chromen-2-yl]benzoate], the pEC50 is 6.04 and the Emax was 102%.

As to `COC(=O)c1cccc([C@H]2C[C@H](NC(=O)C3(c4ccc5c(c4)OC(F)(F)O5)CC3)c3cc(C)ccc3O2)c1` [Example 12, methyl 3-[(2R,4S)-4-({[1-(2,2-difluoro-1,3-benzodioxol-5-yl)cyclopropyl]carbonyl}amino)-6-methyl-3,4-dihydro-2H-chromen-2-yl]benzoate], the pEC50 was 5.26 and the Emax came out at 58%.

In turn, `Cc1ccc2c(c1)[C@@H](NC(=O)C1(c3ccc4c(c3)OC(F)(F)O4)CC1)C[C@H](c1cccc(C(=O)O)c1)O2` [Example 13, 3-[(2R,4S)-4-({[1-(2,2-difluoro-1,3-benzodioxol-5-yl)cyclopropyl]carbonyl}amino)-6-methyl-3,4-dihydro-2H-chromen-2-yl]benzoic acid] showed a negative-log EC50 (pEC50) of 5.34 and an Emax of 118%.

Regarding `Cc1ccc2c(c1)O[C@@H](c1cccc(C(=O)O)c1)C[C@@H]2NC(=O)C1(c2ccc3c(c2)OC(F)(F)O3)CC1` [Example 15, 3-[(2R,4S)-4-({[1-(2,2-difluoro-1,3-benzodioxol-5-yl)cyclopropyl]carbonyl}amino)-7-methyl-3,4-dihydro-2H-chromen-2-yl]benzoic acid], the pEC50 is 5.61 and the Emax amounted to 101%.

Regarding `Cc1ccc2c(c1)O[C@@H](c1cccc(C(=O)O)c1)C[C@H]2NC(=O)C1(c2ccc3c(c2)OC(F)(F)O3)CC1` [Example 16, 3-[(2R,4R)-4-({[1-(2,2-difluoro-1,3-benzodioxol-5-yl)cyclopropyl]carbonyl}amino)-7-methyl-3,4-dihydro-2H-chromen-2-yl]benzoic acid], the pEC50 was 6.43 and the Emax is 108%.

Regarding `COC(=O)c1cccc([C@H]2C[C@H](NC(=O)C3(c4ccc5c(c4)OC(F)(F)O5)CC3)c3ccc(C)cc3O2)c1` [Example 17, methyl 3-[(2R,4S)-4-({[1-(2,2-difluoro-1,3-benzodioxol-5-yl)cyclopropyl]carbonyl}amino)-7-methyl-3,4-dihydro-2H-chromen-2-yl]benzoate], the pEC50 was 5.58 and the Emax worked out at 78%.

Consider `COC(=O)c1cccc([C@H]2C[C@@H](NC(=O)C3(c4ccc5c(c4)OC(F)(F)O5)CC3)c3ccc(C)cc3O2)c1` [Example 18, methyl 3-[(2R,4R)-4-({[1-(2,2-difluoro-1,3-benzodioxol-5-yl)cyclopropyl]carbonyl}amino)-7-methyl-3,4-dihydro-2H-chromen-2-yl]benzoate], for which the pEC50 was 6.46 and the Emax came to 113%.

Compound `COc1cccc([C@H]2C[C@@H](NC(=O)C3(c4ccc5c(c4)OC(F)(F)O5)CC3)c3ccc(O)cc3O2)c1` [Example 20, 1-(2,2-difluoro-1,3-benzodioxol-5-yl)-N-[(2R,4R)-7-hydroxy-2-(3-methoxyphenyl)-3,4-dihydro-2H-chromen-4-yl]cyclopropanecarboxamide] showed a pEC50 of 5.34 and an Emax of 30%.

`COC(=O)c1cccc([C@H]2C[C@@H](NC(=O)C3(c4ccc5c(c4)OC(F)(F)O5)CC3)c3cc(OC)ccc3O2)c1` [Example 21, methyl 3-[(2R,4R)-4-({[1-(2,2-difluoro-1,3-benzodioxol-5-yl)cyclopropyl]carbonyl}amino)-6-methoxy-3,4-dihydro-2H-chromen-2-yl]benzoate] gave a pEC50 of 6.10 and an Emax of 142%.

Regarding `O=C(O)c1cccc([C@H]2C[C@@H](NC(=O)C3(c4ccc5c(c4)OC(F)(F)O5)CC3)c3ccc(O)cc3O2)c1` [Example 23, 3-[(2R,4R)-4-({[1-(2,2-difluoro-1,3-benzodioxol-5-yl)cyclopropyl]carbonyl}amino)-7-hydroxy-3,4-dihydro-2H-chromen-2-yl]benzoic acid], the pEC50 was at most 4.70 and the Emax was found to be 12%.

In turn, `COc1ccc2c(c1)O[C@@H](C1CCCC(C(=O)O)C1)C[C@H]2NC(=O)C1(c2ccc3c(c2)OC(F)(F)O3)CC1` (stereo partly drawn) [Example 35, 3-[(2R,4R)-4-({[1-(2,2-difluoro-1,3-benzodioxol-5-yl)cyclopropyl]carbonyl}amino)-7-methoxy-3,4-dihydro-2H-chromen-2-yl]cyclohexanecarboxylic acid] had a negative-log EC50 (pEC50) of 5.94 and an Emax of 82%.

`O=C(O)C1CCCC([C@H]2C[C@@H](NC(=O)C3(c4ccc5c(c4)OC(F)(F)O5)CC3)c3ccc(F)cc3O2)C1` (stereo partly drawn) [Example 36, 3-[(2R,4R)-4-({[1-(2,2-difluoro-1,3-benzodioxol-5-yl)cyclopropyl]carbonyl}amino)-7-fluoro-3,4-dihydro-2H-chromen-2-yl]cyclohexanecarboxylic acid] showed a pEC50 of 5.74 and a maximal response (Emax) of 78%.

Take `COC(=O)c1cccc([C@H]2C[C@@H](NC(=O)C3(c4ccc5c(c4)OC(F)(F)O5)CC3)c3ccc(F)cc3O2)c1` [Example 39, methyl 3-[(2R,4R)-4-({[1-(2,2-difluoro-1,3-benzodioxol-5-yl)cyclopropyl]carbonyl}amino)-7-fluoro-3,4-dihydro-2H-chromen-2-yl]benzoate]: the pEC50 is 5.76 and the Emax was found to be 82%.

Values taken from patent US9642831B2, “Substituted chromanes and method of use” (AbbVie S.á.r.l., priority 2014, dated 2017).
